Measurements published in patent publication US6689381B2, “Liposomal benzoquinazoline thymidylate synthase inhibitor formulations” (OSI Pharmaceuticals, Inc., priority 2000, dated 2004).
Where “and” joins values, the source holds several entries; their conditions need not be identical. Equal values may be shown once.

What was measured:
[1] = in vivo; design: species or system Male Sprague-Dawley rats; conditions: male, Sprague-Dawley, rat, iv, 1 mg/kg
Protocol: GW1843 (M.W. 500.51 g/mol) was obtained from Glaxo Wellcome, Inc. and suspended as an aqueous. Briefly, 616.74 milligrams of GW1843 was suspended in 1.4 mL 2 N NaOH. The solution was mixed until dissolved. To the dissolved solution 30 mL saline was added. The pH was adjusted to 7.15 with 2 N HCl. Finally, the solution was brought to 46.545 mL with saline. The nominal concentration was 13.25 mg/mL. UV absorption in 0.1 N sodium hydroxide at 266 nm, based on an extinction coefficient of 4.34×104 cm^−1 M^−1, determined the concentration. The concentration by UV spectroscopy was 13.97 mg/mL (5.4% difference from expected). The value determined by spectroscopy was utilized for standards in the HPLC assay. NX1843 lot SMC-991-96 (see Table 1A) was used for making quality control solutions.
Male Sprague-Dawley rats weighing 343.91 to 420.19 grams were used for the study. The in-life phase of the study was conducted in Boulder Colo. in accordance with the guidelines for animal welfare and care (NRC Publication Guide for the Care and Use of Laboratory Animals, 1996). IACUC protocol number N98010. Animals were allowed free access to food and water before and during treatment.
Individual animals treated with NX1843 were weighed and dosed at 1 mg/kg body weight by intravenous bolus administration into the tail vein while under isoflurane anesthesia.
Serial EDTA-blood samples (0.5 mL) were obtained at 5, 15, 30 and 45 minutes, and 1, 1.5 and 2 hr post-dosing for the GW1843 group while animals were under isoflurane anesthesia. For the NX1843 group, serial EDTA-blood samples (0.5 mL) were obtained at 10, 30 and 90 minutes and 4, 8, 24, 32, 48, 72 and 96 hours post-dosing. The EDTA-blood samples were immediately processed for plasma and plasma samples were stored at −20° C. until analysis.
An isocratic reverse phase high performance liquid chromatographic (HPLC) procedure was used for rapid determination of the total GW1843 concentration in rat EDTA-plasma. Following methanol precipitation of plasma protein (2 parts methanol to 1 part plasma), the protein was removed by centrifugation at 14,000×g for 10 minutes. A ZORBAX Eclipse™ XBD-C18 column (3 mm×15 cm) configured with a guard column was used to separate the soluble GW1843 (injection volume 20 μL). The HPLC buffer consisted of 80% 100-mM ammonium acetate pH 5.3, and 20% acetonitrile and the flow rate was 0.4 mL/min. The total run time was seven minutes and GW1843 was detected and quantified by ultraviolet absorbance at 264 nm. The standard curve consisted of free GW1843 spiked rat EDTA-plasma while the quality control samples consisted of NX1843 spiked rat EDTA-plasma. The range of the standard curve was 0.1 to 30.0 μg/mL.
The pharmacokinetic parameters for total GW1843 after i.v administration of GW1843 or liposome encapsulated GW1843 were assessed by a non-compartmental method using WinNonlin (version 1.5). The log/linear trapazoidal rule was used. For non-compartmental analysis, all three time points were utilized for the estimation the elimination phase for free GW1843 while the last 5 time points were utilized to estimate the elimination half-life of NX1843. Cmax values were estimated by extrapolation to zero time. Pharmacokinetic parameters were determined for each animal in the study. From values obtained in each group the mean and SD of each parameter was determined. The parameters estimated included:
The observed clearance (CL) of GW1843 following administration was calculated as: […]
Comparison of treatment groups was performed by unpaired t-tests of data obtained in the same experiment. A p-value of <0.05 was considered significant. Tests were performed using GraphPad Instat version 1.0 (GraphPad Software).

[2] = Example 2: single dose plasma pharmacokinetics of free GW1843 and four liposomal formulations, 1 mg/kg iv bolus; type: in vivo, Sprague Dawley rats; conditions: single 1 mg/kg iv bolus; for GW1843 Plasma Concentration: listed as Free GW1843, 1 mg/kg
From the text: The plasma pharmacokinetics of free GW1843 and 4 different liposome formulations (see Table 1A; GC-1007-27, GC-1020-36, NA-1022-63A, and NA-1022-59A) of GW1843 in rats following a single intravenous bolus administration are compared. The liposome formulations differed by the pH utilized to load the liposome. NX1843 lot nos. GC-1007-27, GC-1020-36, NA-1022-63A, and NA-1022-59A were loaded at pH 7.0, 7.4, 7.3 and 7.5, respectively.
A total of fifteen Sprague Dawley rats were used in the study. Each rat weighed approximately 250 grams. Three animals were assigned to each group (five groups in total). Individual animals were weighed and dosed at 1 mg/kg body weight by intravenous bolus administration into the tail vein while under isoflurene anesthesia. EDTA blood samples were taken at the time points shown in Table 2 while under isoflurene anesthesia and immediately processed into plasma. Plasma was stored at −20° C. until analysis.
Plasma samples were prepared and analyzed for GW1843 by the use of a non-validated HPLC assay. Following methanol precipitation of plasma protein, the soluble GW1843 was separated by C-18 reverse phase column chromatography. Separation was achieved by an isocratic method. Running buffer consisted of 80% acetonitrile and 20% 100 mM ammonium acetate pH=5.3. Area under the peak versus concentration of GW1843 was used to construct the standard curve.
Pharmacokinetic parameters were determined by non-compartmental analysis (WinNonlin version 1.5). Pharmacokinetic parameters were determined for each experimental group using the average concentration versus time values for each group. The following parameters were calculated: Maximum plasma concentration (Cmax); area under the plasma concentration versus time curve extrapolating to infinite time (AUCinf) or to last time point (AUClast); elimation half-life (Elim.T½); mean residence time (MRT) plasma clearance (Cl) and volume of distribution at steady state (Vss).

[3] = Concentration of GW1843 in Plasma
[4] = Sprague Dawley, rat, plasma, rats ~250 g, noncompartmental, group average

## Cc1nc2ccc3ccc(CNc4ccc5c(c4)CN(C(CCC(=O)O)C(=O)O)C5=O)cc3c2c(=O)[nH]1 (centres unmarked) [GW1843]
[1]
  volume of distribution of free drug relative to the liposome formulation: ~14.6 fold
[1]; AUC(0-inf)
  AUC(0-inf): 270 ± 28 ng·h/mL
[1]; AUC(0-last)
  AUC(0-t): 250 ng·h/mL
[1]; CL
  clearance: 61 mL/min/kg
[1]; Cmax
  Cmax: 1620 to 1990 ng/mL
[1]; [3]
  concentration at 0.083 hr: 991 ng/mL
  concentration at 0.25 hr: 214 ng/mL
  concentration at 0.5 hr: 117 ng/mL
[1]; MRT(0-inf)
  MRT inf: 10.8 min
[1]; T½ (terminal half-life)
  half-life: 8.52 ± 0.42 min
[1]; Vss
  Vd: 0.654 L/kg
[1]; plasma clearance
  clearance: 62.3 mL/min
[2]; 0.083 h, individual rats
  GW1843 Plasma Concentration: 0.76 µg/mL
[2]; 0.250 h, individual rats
  GW1843 Plasma Concentration: 0.20 µg/mL and 0.19 µg/mL
[2]; 0.500 h, individual rats
  GW1843 Plasma Concentration: 0.11 µg/mL and 0.10 µg/mL
[2]; 1.000 h, individual rats
  GW1843 Plasma Concentration: BLQ and 0.06 μg/mL
[2]; Sprague Dawley, rat, plasma, iv, 1 mg/kg, 0.083 h, individual rats
  concentration at 0.083 h: 520 ng/mL
[2]; Sprague Dawley, rat, plasma, iv, 1 mg/kg, 0.250 h, individual rats
  concentration at 0.25 h: 180 ng/mL
[2]; Sprague Dawley, rat, plasma, iv, 1 mg/kg, 0.500 h, individual rats
  concentration at 0.5 h: 100 ng/mL
[2]; Sprague Dawley, rat, plasma, iv, 1 mg/kg, 1.000 h, individual rats
  concentration at 1 h: 60 ng/mL
[2]; Sprague Dawley, rat, plasma, iv, 1 mg/kg, rats ~250 g, noncompartmental, group average, read-out: Cmax
  Cmax: 1280 ng/mL
[2]; Sprague Dawley, rat, plasma, iv, 1 mg/kg, rats ~250 g, noncompartmental, group average, read-out: t½ (elimination half-life) (converted)
  half-life: ~30 min
[2]; Sprague Dawley, rat, plasma, iv, 1 mg/kg, rats, text of Example 2, read-out: maximum achieved concentrations (Cmax) in the plasma
  Cmax: 1300 ng/mL
[2]; [4]
  AUC(0-inf): 263 ng·h/mL
  AUC(0-t): 219 ng·h/mL
  MRT inf: 30 min
[2]; Sprague Dawley, rat, plasma, rats ~250 g, noncompartmental, group average, read-out: Cl (converted)
  clearance: 63.4 mL/min/kg
[2]; Sprague Dawley, rat, plasma, rats ~250 g, noncompartmental, group average, read-out: Vss
  Vd: 1.89 L/kg
[2]; Sprague Dawley, rat, plasma, rats, text of Example 2, read-out: plasma clearance (converted)
  clearance: 63.4 mL/min
